Measured values reported in patent EP1171607B1, “STREPTOKINASE FRAGMENTS AND THEIR USE FOR INHIBITING CELL DEATH” (Rabkin, Simon W., priority 1999, dated 2000).
Where no end group is shown, it is not given here.

How the values were obtained:
M07E = M07E starved 30 hours in 1% fetal calf serum; 20 µg/ml peptide
Description: (§1) The hematopoietic, growth factor dependent cell lines, M07E and TF-1 (Mijajima, CDNAX Research Institute, Palo Alto, California), were starved for 30 hours in DMEM containing 1% fetal calf serum (Hyclone, Logan, Utah) in the presence or absence of 20 µg/ml of the 20mer peptide (SEQ. ID NO. 6). Cell viability was measured by one of two methods, trypan blue exclusion or ^3H-thymidine incorporation (Alai et al., J. Biol. Chem. 267:18021-18025, 1992).

TF-1 = TF-1 starved 30 hours in 1% fetal calf serum; 20 µg/ml peptide
Description: as §1

SVDVEYTQFTDFRGKLTKLL [Peptide 20mer] was tested, and the “TRYPAN BLUE COUNTS (% VIABILITY)” value (M07E) was 20 ± 0.5% and the “TRYPAN BLUE COUNTS (% VIABILITY)” value (TF-1) was 29 ± 1%.
